Test results published in patent publication US20050112573A1, “Method of detecting toxic substance” (priority 2001, published 2005).

System: yeast genes (level of expressed mRNA)
Experiment: DNA chip analysis of expressed mRNA of yeast genes after 2 h culture with a toxic chemical substance
Type: cell-based, Saccharomyces cerevisiae S288C
In short: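 Values are treated-to-control fluorescence ratios from a whole-yeast-genome DNA chip (65° C, over 12 h hybridization) using Cy3/Cy5-labelled cDNA from mRNA. Log-phase S288C cells in YPD at 25° C were exposed 2 h to a toxicant at sublethal, growth-inhibiting concentration.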

HgCl2 [(3)]
The level of expressed mRNA in the presence of chemical substance/ (yeast gene YNL074C, ratio to control without chemical substance, 2 h culture): 1.8
The level of expressed mRNA in the presence of chemical substance/ (yeast gene YNL092W, ratio to control without chemical substance, 2 h culture): 2.4
The level of expressed mRNA in the presence of chemical substance/The level of expressed mRNA in the absence of chemical substance (yeast gene YNL093W): 0.4
The level of expressed mRNA in the presence of chemical substance/ (yeast gene YNL115C, ratio to control without chemical substance, 2 h culture): 1.6
The level of expressed mRNA in the presence of chemical substance/ (yeast gene YNL156C, ratio to control without chemical substance, 2 h culture): 0.9
The level of expressed mRNA in the presence of chemical substance/ (yeast gene YNL234W, ratio to control without chemical substance, 2 h culture): 0.6
The level of expressed mRNA in the presence of chemical substance/ (yeast gene YNL281W, ratio to control without chemical): 2.0
The level of expressed mRNA in the presence of chemical substance/ (yeast gene YNL305C, ratio to control without chemical): 2.7
The level of expressed mRNA in the presence of chemical substance/The level of expressed mRNA in the absence of chemical substance (yeast gene YNL333W): 1.7
The level of expressed mRNA in the presence of chemical substance/The level of expressed mRNA in the absence of chemical substance (yeast gene YNR010W): 0.5
The level of expressed mRNA in the presence of chemical substance/ (yeast gene YNR068C, ratio to control without chemical): 2.3
The level of expressed mRNA in the presence of chemical substance/The level of expressed mRNA in the absence of chemical substance (yeast gene YNR069C): 0.7
The level of expressed mRNA in the presence of chemical substance/in the absence of chemical substance (yeast gene YNR072W): 0.5
The level of expressed mRNA in the presence of chemical substance/The level of expressed mRNA in the absence of chemical substance (yeast gene YOL013C): 1.0
The level of expressed mRNA in the presence of chemical substance/ (yeast gene YOL032W, ratio to control without chemical): 2.0
The level of expressed mRNA in the presence of chemical substance/ (yeast gene YOL036W, ratio to control without chemical): 1.3
The level of expressed mRNA in the presence of chemical substance/ (yeast gene YOL047C, ratio to control without chemical): 1.1
The level of expressed mRNA in the presence of chemical substance/ (yeast gene YOL071W, ratio to control without chemical): 1.7
The level of expressed mRNA in the presence of chemical substance/ (yeast gene YOL082W, ratio to control without chemical): 1.6
The level of expressed mRNA in the presence of chemical substance/ (yeast gene YOL083W, ratio to control without chemical): 1.2
The level of expressed mRNA in the presence of chemical substance/in the absence of chemical substance (yeast gene YOL096C): 1.2
The level of expressed mRNA in the presence of chemical substance/ (yeast gene YOL117W, ratio to control without chemical): 0.5
The level of expressed mRNA in the presence of chemical substance/ (yeast gene YOL131W, ratio to control without chemical): 0.6
The level of expressed mRNA in the presence of chemical substance/ (yeast gene YOL150C, ratio to control without chemical substance, 2 h culture): 9.9
The level of expressed mRNA in the presence of chemical substance/ (yeast gene YOL162W, ratio to control without chemical): 1.7
The level of expressed mRNA in the presence of chemical substance/The level of expressed mRNA in the absence of chemical substance (yeast gene YOL164W): 1.0
The level of expressed mRNA in the presence of chemical substance/ (yeast gene YOR019W, ratio to control without chemical): 0.8
The level of expressed mRNA in the presence of chemical substance/The level of expressed mRNA in the absence of chemical substance (yeast gene YOR036W): 1.4
The level of expressed mRNA in the presence of chemical substance/The level of expressed mRNA in the absence of chemical substance (yeast gene YOR117W): 1.7
The level of expressed mRNA in the presence of chemical substance/The level of expressed mRNA in the absence of chemical substance (yeast gene YOR124C): 1.3
The level of expressed mRNA in the presence of chemical substance/The level of expressed mRNA in the absence of chemical substance (yeast gene YOR132W): 0.8
The level of expressed mRNA in the presence of chemical substance/The level of expressed mRNA in the absence of chemical substance (yeast gene YOR157C): 1.2
The level of expressed mRNA in the presence of chemical substance/in the absence of chemical substance (yeast gene YOR180C): 1.0
The level of expressed mRNA in the presence of chemical substance/The level of expressed mRNA in the absence of chemical substance (yeast gene YOR181W): 1.1
The level of expressed mRNA in the presence of chemical substance/The level of expressed mRNA in the absence of chemical substance (yeast gene YOR185C): 1.9
The level of expressed mRNA in the presence of chemical substance/ (yeast gene YOR197W, ratio to control without chemical): 1.1
The level of expressed mRNA in the presence of chemical substance/The level of expressed mRNA in the absence of chemical substance (yeast gene YOR198C): 1.4
The level of expressed mRNA in the presence of chemical substance/The level of expressed mRNA in the absence of chemical substance (yeast gene YOR259C): 0.8
The level of expressed mRNA in the presence of chemical substance/The level of expressed mRNA in the absence of chemical substance (yeast gene YOR261C): 0.6
The level of expressed mRNA in the presence of chemical substance/The level of expressed mRNA in the absence of chemical substance (yeast gene YOR288C): 1.1
The level of expressed mRNA in the presence of chemical substance/The level of expressed mRNA in the absence of chemical substance (yeast gene YOR355W): 1.1
The level of expressed mRNA in the presence of chemical substance/in the absence of chemical substance (yeast gene YOR363C): 0.9
The level of expressed mRNA in the presence of chemical substance/The level of expressed mRNA in the absence of chemical substance (yeast gene YOR383C): 2.6
The level of expressed mRNA in the presence of chemical substance/ (yeast gene YPL087W, ratio to control without chemical): 3.0
The level of expressed mRNA in the presence of chemical substance/The level of expressed mRNA in the absence of chemical substance (yeast gene YPL089C): 0.5
The level of expressed mRNA in the presence of chemical substance/The level of expressed mRNA in the absence of chemical substance (yeast gene YPL109C): 0.5
The level of expressed mRNA in the presence of chemical substance/The level of expressed mRNA in the absence of chemical substance (yeast gene YPL149W): 0.6
The level of expressed mRNA in the presence of chemical substance/The level of expressed mRNA in the absence of chemical substance (yeast gene YPL154C): 4.2
The level of expressed mRNA in the presence of chemical substance/ (yeast gene YPL196W, ratio to control without chemical): 1.3
The level of expressed mRNA in the presence of chemical substance/ (yeast gene YPL206C, ratio to control without chemical): 1.4
The level of expressed mRNA in the presence of chemical substance/ (yeast gene YPL222W, ratio to control without chemical): 0.8
The level of expressed mRNA in the presence of chemical substance/ (yeast gene YPR023C, ratio to control without chemical): 1.2
The level of expressed mRNA in the presence of chemical substance/The level of expressed mRNA in the absence of chemical substance (yeast gene YPR103W): 1.3
The level of expressed mRNA in the presence of chemical substance/The level of expressed mRNA in the absence of chemical substance (yeast gene YPR108W): 1.3
The level of expressed mRNA in the presence of chemical substance/ (yeast gene YPR151C, ratio to control without chemical): 1.5
The level of expressed mRNA in the presence of chemical substance/in the absence of chemical substance (yeast gene YPR184W): 5.7
